Measurements from patent US20200108032A1, “USE OF ISOFERULIC ACID, ISOFERULIC ACID-CONTAINING TRADITIONAL CHINESE MEDICINE EXTRACT AND CIMICIFUGAE RHIZOMA” (BEIJING DITAN HOSPITAL, CAPITAL MEDICAL UNIVERSITY, priority 2017, published 2020).

How the values were obtained:
Assay type in all cases: in vivo, C57BL/6 mice
serum cytokines = experiment: Serum cytokines in CIA arthritis mice (multi-factor detection); conditions: MEAN ± SEM
Source text: Test materials and animals: Consistent with Experimental Example 3. Anti-type II collagen antibody ELISA kit was purchased from Chondrex, Cytokine & Chemokine 36-Plex Mouse ProcartaPlex™ Panel 1A cytokine and chemokine detection kit was purchased from ThermoFisher.
Model preparation and drug administration: the drug dosage of each treatment group was the same as that of Experimental Example 3. After 21 days of the second immunization, the mice were anesthetized.
(3) The effects of each drug group on cytokine secretion in serum and joint tissues of CIA mice were measured. Seven mice from each group were examined; peripheral blood was collected and separated from serum. Cytokines in serum were detected by multiple factors: IFN-γ, IL-6, IL-9, IL-12, IL-17A, IP-10, MCP-1, MCP-3. MIP-1α, MIP-1β, Eotaxin, and G-CSF; the right hind limb knees, joints and claws were taken and stored in liquid nitrogen for quick freezing, then homogenized and extracted protein. Multi-factor detection of cytokines in tissues: IL-9, IL-18 and MIP-2 secretion.

CIA arthritis mice = experiment: Arthritis index of CIA arthritis mice; conditions: for arthritis index: MEAN ± SEM
Source text: Test materials: bovine type II collagen acetic acid solution and complete Freund's adjuvant were purchased from Chondrex company; isoferulic acid was purchased from Tianjin Yifang Technology Co., Ltd.
Animals: C57BL/6 mice, purchased from Beijing Huafukang Biotechnology Co., Ltd.
Grouping: 24 C57BL/6 mice, male, 18-20 g, after 1 day of adaptive breeding, the mice were randomly divided into 4 groups: normal control group and CIA model group, 5 mice in each group; Cimicifugae rhizoma group and isoferulic acid group, 7 mice in each group.
Model preparation and drug administration: Prepared a 2 mg/ml bovine type II collagen acetic acid solution, took 2 ml of the overnighted bovine type II collagen acetic acid solution, mixed thoroughly with 2 ml of complete Freund's adjuvant and emulsified (operation on ice), and prepared the bovine type II collagen emulsion having a final concentration of 1 mg/ml. Each mouse was injected intradermally with 0.1 ml of the emulsion. 21 days after the first immunization, mice were given a second immunization for 21 days, starting from day 0 of the second immunization, the CIA model group was given 250 μL of distilled water by gavage and the Cimicifugae rhizoma group was given 250 μL of the Cimicifugae rhizoma decoction obtained in Preparation Example 1. The crude drug dose was 2 g/kg; 250 μL of an aqueous solution of isoferulic acid was administered by gavage in the isoferulic acid group at a dose of 5 mg/kg, administered once every 3 days, and bred continuously for 21 days.
Animals were scored using the joint scoring method (grades 0-4), and the assessment was based on the degree of joint redness and swelling and joint swelling and deformation. 0 point: no redness and swelling; 1 point: redness but no swelling of the joint; 2 points: mild redness and swelling of the joint; 3 points: moderate redness and swelling of the joint; 4 points: severe redness and swelling of the joint accompanied by dysfunction of the joint. Each limb was scored separately, and the sum of the scores of each limb is the arthritis index of the mouse. The highest score is 16 points. The higher the score, the more severe the joint symptoms.

[1] = tested on: mouse model of ConA hepatitis; experiment: Liver pathological damage (HE staining) in mouse model of ConA hepatitis; conditions: liver 10 hours after ConA 15 mg/kg; compared with the ConA group
Procedure: (§1) The test materials and animals were the same as those in Experimental Example 1.
(§2) Grouping: C57BL/6 mice, male, 18-20 g, after 1 day of adaptive breeding, the mice were randomly divided into 6 groups: normal control group; ConA model group, Cimicifugae rhizoma compatibility group, Cimicifugae rhizoma group, Cimicifugae rhizoma total phenolic acid group and isoferulic acid group.
(§3) Model preparation and drug administration: except the normal control group, mice were injected intravenously once at a dose of ConA 15 mg/kg. The dosages of each drug group were the same as those of Experimental Example 1.
(2) The effects of each drug group on liver pathological damage in ConA mice were examined. Three mice in each group were sacrificed under anesthesia 10 hours after ConA injection. The left lobe of the liver was taken, cut into a size of about 5 mm^3, and placed in 10% formalin solution, and dehydrated, transparently impregnated with wax, embedded, sliced, and spread, and observed after staining;

[2] = tested on: serum cytokines TNF-α, IL-12, IL-6, MCP-1, IFN-γ; experiment: Serum cytokine secretion in mouse model of ConA hepatitis; conditions: MEAN ± SEM
Procedure: as §1, §2, §3
(3) The effects of drugs in each treatment group on serum cytokine secretion in ConA mice were examined. Six mice from each group. Peripheral blood was collected 3 hours after ConA injection and serum was separated to detect the secretion of cytokines TNF-α, IL-12, IL-6 and MCP-1. Serum was separated 10 hours after ConA injection to detect cells factor IFN-γ secretion.

[3] = serum 3 hours after ConA injection

Question: How did the Eotaxin (serum cytokines) turn out when `COc1ccc(C=CC(=O)O)cc1O` [isoferulic acid, 3-hydroxy-4-methoxycinnamic acid] was run?
Answer: 349.6 ± 85.4 pg/mL

Question: What about the G-CSF (serum cytokines) of the same molecule?
Answer: 4 ± 1.2 pg/mL

Question: And the IL-6 (serum cytokines)?
Answer: 23.3 ± 21.6 pg/mL

Question: What about the IL-9 (serum cytokines) of the same molecule?
Answer: 15 ± 5.8 pg/mL

Question: What about the IL-12 (serum cytokines) of the same molecule?
Answer: 21.9 ± 3.5 pg/mL

Question: And the IL-17A (serum cytokines)?
Answer: 4.9 ± 3.1 pg/mL

Question: And the IP-10 (serum cytokines)?
Answer: 52.8 ± 20.8 pg/mL

Question: And the MCP-1 (serum cytokines)?
Answer: 139.3 ± 43.4 pg/mL

Question: And the MCP-3 (serum cytokines)?
Answer: 151.9 ± 20 pg/mL

Question: And the MIP-1α (serum cytokines)?
Answer: 2.4 ± 0.6 pg/mL

Question: What about the MIP-1β (serum cytokines) of the same molecule?
Answer: 3.2 ± 1.1 pg/mL

Question: And the IFN-γ (serum cytokines; isoferulic acid 5 mg/kg)?
Answer: 120.6 ± 37.1 pg/mL

Question: And the arthritis index (CIA arthritis mice; Day 0 after second immunization, gavage once every 3 days (Cimicifugae rhizoma 2 g/kg, isoferulic acid 5 mg/kg), max 16 points)?
Answer: 0 ± 0

Question: And the arthritis index (CIA arthritis mice; Day 3 after second immunization)?
Answer: 0.43 ± 0.28

Question: And the arthritis index (CIA arthritis mice; Day 6 after second immunization)?
Answer: 1.0 ± 0.61

Question: And the arthritis index (CIA arthritis mice; Day 9 after second immunization)?
Answer: 3.14 ± 0.77

Question: What about the arthritis index (CIA arthritis mice; Day 12 after second immunization) of the same molecule?
Answer: 5.14 ± 0.98

Question: What about the arthritis index (CIA arthritis mice; Day 15 after second immunization, CIA group 8.43) of the same molecule?
Answer: 4.43

Question: And the arthritis index (CIA arthritis mice; Day 15 after second immunization, CIA group 8.43, listed as Isoferulic acid)?
Answer: 5.71 ± 0.83

Question: And the “swelling of paw joints (FIG. 3)” value (CIA arthritis mice; pictures of front and hind paw joints, versus CIA arthritis mice)?
Answer: significantly reduced

Question: What about the “liver pathological damage (HE staining)” value [1] of the same molecule?
Answer: reduced hepatocyte degeneration and necrosis

Question: What about the IL-6 [2, 3] of the same molecule?
Answer: 1422 ± 214.2 pg/mL

Question: And the IL-12 [2, 3]?
Answer: 183.7 ± 33.4 pg/mL

Question: What about the MCP-1 [2, 3] of the same molecule?
Answer: 5708 ± 145.5 pg/mL

Question: And the TNF-α [2, 3]?
Answer: 260.4 ± 119.5 pg/mL

Question: And the IFN-γ ([2]; serum 10 hours after ConA injection)?
Answer: 574 ± 70.4 pg/mL
